inhibition, MIC and Activity data for 15 compounds are collected here from ChEMBL document CHEMBL1140551, “N-Benzyl-3-sulfonamidopyrrolidines as novel inhibitors of cell division in E. coli” (2007).

By inhibition is commonly meant the relative decrease from the control value, in per cent. A high value points to a strong effect. One may read the MIC as the smallest concentration in the dilution series that meets the test's criterion for growth inhibition. Low values mean greater potency, high ones weaker potency.

The test system of test [1] is Escherichia coli. Description: Inhibition of GTPase activity of Escherichia coli FtsZ at 100 uM.
Test [2] concerns Escherichia coli. Description: Antimicrobial activity against AcrAB efflux pump-deficient Escherichia coli DCR39. It counts as functional.
Test [3] has as its system Escherichia coli. Description: Induction of filamentation in Escherichia coli DCR39 at 5 uM after 15 hrs. The test is classed as functional, organism-based.

In brackets after ≈: the same amount, converted by molar mass. Activity calls are given as the source filed them. Where only a bound is given, the exact number is not on record here.

For `Cc1ccc(F)cc1S(=O)(=O)N[C@@H]1CCN(Cc2ccc3c(c2)OCO3)C1`, the inhibition in test [1] is 14.6%. Further, the MIC in test [2] is above 80 µM.

Regarding `Cc1ccc(F)cc1S(=O)(=O)N[C@@H]1CCN(Cc2ccc(C(=O)c3ccccc3)cc2)C1`, the minimal inhibitory concentration (MIC) in test [2] is above 80 µM.

Take `Cc1ccc(F)cc1S(=O)(=O)N[C@@H]1CCN(Cc2ccc(Oc3ccccc3)cc2)C1`: the inhibition in test [1] turned out to be 12.3%. The MIC in test [2] amounted to 20 µM (≈ 8.81 µg/mL).

With `Cc1ccc(F)cc1S(=O)(=O)N[C@@H]1CCN(Cc2ccc(C(F)(F)F)cc2)C1`, the inhibition in test [1] was determined as 26.9%. In test [2], this compound came in with an MIC above 80 µM.

Compound `C#Cc1ccc(S(=O)(=O)N[C@@H]2CCN(Cc3ccc(OC(C)C)c(N=[N+]=[N-])c3)C2)cc1` displayed a minimum inhibitory concentration (MIC) in test [2] above 64 µM.

In test [1], `Cc1ccc(F)cc1S(=O)(=O)N[C@@H]1CCN(Cc2ccc(Br)cc2)C1` returned an inhibition of 31.5%. Moreover, in test [2], the minimal inhibitory concentration (MIC) was above 80 µM.

Turning to `C#Cc1ccc(S(=O)(=O)N[C@@H]2CCN(Cc3ccc(N=[N+]=[N-])cc3)C2)cc1`, in test [2], the minimum inhibitory concentration (MIC) was above 40 µM.

On to `Cc1ccc(F)cc1S(=O)(=O)N[C@@H]1CCN(Cc2ccc3[nH]ccc3c2)C1`, for which the inhibition in test [1] was determined as 24.9%. The compound also showed an MIC in test [2] above 80 µM.

With `CC(C)Cc1ccc(CN2CC[C@@H](NS(=O)(=O)c3cc(Cl)ccc3Cl)C2)cc1`, the minimal inhibitory concentration (MIC) in test [2] was determined as 10 µM (≈ 4.41 µg/mL). The result in test [3] was Active.

With `C#Cc1ccc(S(=O)(=O)N[C@@H]2CCN(Cc3ccc(CC(C)C)cc3)C2)cc1`, in test [2], the MIC was below 12 µM.

`CC(C)Cc1ccc(CN2CCC[C@@H](CNS(=O)(=O)c3cc(Cl)ccc3Cl)C2)cc1` registered a minimum inhibitory concentration (MIC) in test [2] of 20 µM (≈ 9.39 µg/mL). In other words, the double-digit micromolar range.

Turning to `Cc1ccc(F)cc1S(=O)(=O)N[C@@H]1CCN(C(=O)c2ccc(OC(C)C)cc2)C1`, the inhibition in test [1] came to 31.9%. For the same compound, the MIC in test [2] is above 80 µM.

With `Cc1ccc(F)cc1S(=O)(=O)N[C@@H]1CCN(Cc2ccc(CC(C)C)cc2)C1`, the inhibition in test [1] was 13.7%. For the same compound, in test [2], the MIC was below 10 µM.

In the case of `Cc1ccc(F)cc1S(=O)(=O)N[C@@H]1CCN(Cc2cccc3[nH]ccc23)C1`, in test [1], the inhibition was 29.9%. The MIC in test [2] is above 80 µM.

Take `Cc1ccc(F)cc1S(=O)(=O)N[C@@H]1CCN(Cc2ccc(-c3ccccc3)cc2)C1`: in test [1], the inhibition is 9.4%. The same compound had an MIC in test [2] below 10 µM.
